Results from US10653709B2, “Methods of folding a graft copolymer with dual anticancer drugs and related applications” (priority 2014, dated 2020).

Key:
Type in all cases: cell-based
[1] = test system: HL-60; test: In vitro cytotoxicity, CellTiter-Glo Luminescent Cell Viability Assay; conditions: Homo sapiens, HL-60 (leukemia), suspension cells, mean ± SD
[2] = test system: Hep G2; test: In vitro cytotoxicity, MTT assay; conditions: Homo sapiens, HepG2; Hep G2 (liver), 48 hours, mean ± SD
Protocol: (§1) In vitro cytotoxicity of CPT, Dox, MB-20 and MB-20/Dox was measured using the 3-(4,5-dimethylthiazol-2-yl)-2,5-diphenyltetrazolium bromide (MTT) assay. Briefly, cancer cells were seeded in a 96-well plate at a density of 5,000 cells per well. After 12 h incubation, a series of drug dilution (1 nM to 300 μM) were added into wells. After 48 h of drug treatment, the cytotoxicity was measured using the MTT assay. To enhance the assay sensitivity, Sorensen's glycine buffer (0.1 M glycine, 0.1 M NaCl adjust pH to 10.5 with 0.1 N NaOH) was added into wells before absorbance assay. See Plumb et al., Cancer Res., 49, 4435-4440 (1989); Tai et al., Mol. Pharm., 8, 901-912 (2011); and Tai et al., Mol. Pharm., 10, 477-487 (2013). The absorbance at wavelength of 570 nm was measured using a microplate reader (Infinite® M200 PRO, Tecan, Mannedorf, Switzerland). The half-maximal inhibitory concentration (IC50) was calculated by fitting a concentration—absorbance curve using the Graphpad Prism 5 software (Graphpad Software Inc., San Diego, Calif., United States of America).

[3] = test system: MDA-MB-231; test: In vitro cytotoxicity, MTT assay; conditions: Homo sapiens; MDA-MB-231 (breast), 48 hours, mean ± SD
Protocol: as §1

[4] = test system: HeLa; test: In vitro cytotoxicity, MTT assay; conditions: Homo sapiens; HeLa (cervix), 48 hours, mean ± SD
Protocol: as §1

[5] = test system: NCI-H441; test: In vitro cytotoxicity, MTT assay; conditions: Homo sapiens; NCI-H441 (lung), 48 hours, mean ± SD
Protocol: as §1

[6] = test system: MDA-MB-468; test: In vitro cytotoxicity, MTT assay; conditions: Homo sapiens; MDA-MB-468 (breast), 48 hours, mean ± SD
Protocol: as §1

[7] = test system: A549; test: In vitro cytotoxicity, MTT assay; conditions: Homo sapiens; A549 (lung), 48 hours, mean ± SD
Protocol: as §1

[8] = test system: PC-3; test: In vitro cytotoxicity, MTT assay; conditions: Homo sapiens; PC-3 (prostate), 48 hours, mean ± SD
Protocol: as §1

[9] = test system: MCF-7; test: In vitro cytotoxicity, MTT assay; conditions: Homo sapiens, MCF7; MCF-7 (breast), 48 hours, mean ± SD
Protocol: as §1

[10] = test system: panel of 9 cancer cell lines; test: In vitro cytotoxicity across the panel; conditions: range over the panel, 48 hours; read-out: IC50s across cancer cell lines
Protocol: as §1

## COc1cccc2c1C(=O)c1c(O)c3c(c(O)c1C2=O)C[C@@](O)(C(=O)CO)C[C@@H]3O[C@H]1C[C@H](N)[C@H](O)[C@H](C)O1 [Dox, doxorubicin]
[1]
  IC50: 300 nM
[2]
  IC50: 500 ± 1400 nM
[3]
  IC50: 100 nM
[4]
  IC50: 1000 ± 1700 nM
[5]
  IC50: 200 ± 400 nM
[6]
  IC50: 100 nM
[7]
  IC50: 500 ± 800 nM
[8]
  IC50: 200 ± 400 nM
[9]
  IC50: 300 nM

## CC[C@@]1(O)C(=O)OCc2c1cc1n(c2=O)Cc2cc3ccccc3nc2-1 [CPT, camptothecin]
[1]
  IC50: 400 ± 1000 nM
[10]
  IC50: 20 to 3300 nM
[2]
  IC50: 600 ± 1400 nM
[3]
  IC50: 600 ± 500 nM
[4]
  IC50: 3300 ± 1500 nM
[5]
  IC50: 100 ± 200 nM
[6]
  IC50: 90 ± 90 nM
[7]
  IC50: 300 nM
[8]
  IC50: 20 nM
[9]
  IC50: 1200 ± 1000 nM
